# Measurements: patent publication US10947254B2, “Methods for treating ulcerative colitis using 3-((1R,3s,5S)-3-((7-((5-methyl-1H-pyrazol-3-yl)amino)-1,6-naphthyridin-5-yl)amino)-8-azabicyclo[3.2.1]octan-8-yl)propanenitrile” (priority 2015, dated 2021)
# Assays:
# [1] = First in human study of safety, tolerability and pharmacokinetics in healthy subjects; type: in vivo; details: by comparison to other orally administered compounds
# Experimental: Assay 9: First in Human Study to Evaluate the Safety, Tolerability and Pharmacokinetics in Healthy Subjects
# The compound of Example 1 was evaluated in a double-blinded, randomized, placebo-controlled, single ascending dose (SAD) and multiple ascending dose (MAD) study of safety, tolerability, and pharmacokinetics in healthy subjects. Pharmacokinetic samples were collected up to 72 hours post the final dose in both the SAD study (after the first dose) and MAD study (after 14 days of once-daily dosing). The SAD study enrolled 5 cohorts and the MAD study enrolled 4 cohorts totaling 72 subjects, of which 71 completed the dosing period.
# Plasma pharmacokinetic (PK) parameters were determined by non-compartmental analysis using WinNonLin Version 6.4.0 (Pharsight, St Louis, Mo.). The plasma PK parameter presented here is:
# Cmax: Maximum Concentration in Plasma
# [2] = test system: splenic NK, B and T cells; test: Immunosuppression effects in mouse splenic natural killer (NK) cells; type: in vivo, Balb/C mice; details: mice, three days
# Experimental: Adult male Balb/C mice (12-14 weeks of age) from Harlan were used for the study. […] Spleens were harvested 1 or 2 h post last dose and crushed immediately for cell subtype staining. Prior to fixation, fluorophore-labelled antibodies for CD19 (FITC; B cells), CD3e (PE; pan T cells) and DX5 (APC; NK cells) were incubated with splenocyte samples from each animal to allow for simultaneous, multiple subtype % analysis on the flow cytometer. The number of total spleen cells for each animal was measured by Scepter™ 2.0 Handheld Automated Cell Counter. The absolute number of lymphocyte subtype population (e.g., splenic B, T and NK cells) was calculated from the percentage of each subtype times total spleen cells for each animal. A one way ANOVA, with Dunnett's post hoc test, was used to compare the splenic lymphocytes number of the vehicle and test compound groups. The a level was set at p<0.05. Data were presented as the mean±SEM for each group.
# [3] = Pharmacokinetics in plasma and the GI tract in rats; type: in vivo, Sprague Dawley rats; details: oral dosing in preclinical species
# Experimental: Assay 6: Pharmacokinetics in Plasma and the GI Tract in Rats and Dogs A test compound was dosed to male Sprague Dawley rats (n=3) as described in Assay 5. […] At all time points, the plasma concentration was below the limit of quantitation of 0.001 μg/mL.
# [4] = test system: oxazolone-induced colitis; test: Mouse model of oxazolone-induced colitis; type: in vivo, BALB/C mice; details: mice
# Experimental: Assay 7: Mouse Model of Oxazalone-Induced Colitis
# Oxazolone-induced colitis is an experimental model that has a histological resemblance to human ulcerative colitis (Heller et al. Immunology, 2002, 17, 629-638). Adult BALB/C mice from Harlan were used in the assay. On day 1, animals were lightly anesthetized with isoflurane and the hairs between the shoulder were carefully removed before oxazolone (4%, 150 μL, 4:1 acetone:olive oil formulation) or vehicle solution was slowly applied for skin sensitization. Seven days after skin sensitization, the mice were fasted overnight, anesthetized with isoflurane inhalation, and a 1 mL syringe equipped with a 3.5-F catheter, filled with oxazolone solution, was inserted carefully about 4 cm into the colon of the mouse. Following insertion, 50 μL of the oxazolone solution (1%, 1:1 ethanol:water formulation) was injected very slowly (over 30 sec using an injection pump) into the colon. The catheter was removed and the mice were held vertically (head down) for 2 min to ensure that the entire oxazolone solution remained inside the colon. Drug treatment (PO, BID or TID) or vehicle was initiated a day prior to the oxazolone intrarectal (IR) challenge. Two-day post oxazolone intrarectal challenge, the Disease Activity Index (DAI) was assessed by treatment-blinded experimenters for each mouse according to the criteria score: stool consistency score (0, normal; 2, loose; 4, diarrhea), gross bleeding score (0, absence; 2, blood tinged; 4, presence), and weight loss score (0, none; 1, 1%-5%; 2, 5%-10%; 3, 10%-20%; 4, more than 20%); DAI=average of (stool consistency score+gross bleeding score+weight loss score).
# Selected compounds of the invention were tested in the assay. Efficacy in the model is evidenced by a decrease in DAI score as compared with the score from vehicle treated animals.
# [5] = target: JAK2 (Homo sapiens (Human), UniProt O60674); type: biochemical
# Experimental: (§1) Assay 1: Biochemical JAK and Off-Target Kinase Assays
# (§2) A panel of four LanthaScreen JAK biochemical assays (JAK1, 2, 3 and Tyk2) were carried in a common kinase reaction buffer (50 mM HEPES, pH 7.5, 0.01% Brij-35, 10 mM MgCl2, and 1 mM EGTA). Recombinant GST-tagged JAK enzymes and a GFP-tagged STAT1 peptide substrate were obtained from Life Technologies.
# (§3) Serially diluted compounds were pre-incubated with each of the four JAK enzymes and the substrate in white 384-well microplates (Corning) at ambient temperature for 1 h. ATP was subsequently added to initiate the kinase reactions in 10 μL total volume, with 1% DMSO. […] Kinase reactions were allowed to proceed for 1 hour at ambient temperature before a 10 μL preparation of EDTA (10 mM final concentration) and Tb-anti-pSTAT1 (pTyr701) antibody (Life Technologies, 2 nM final concentration) in TR-FRET dilution buffer (Life Technologies) was added. The plates were allowed to incubate at ambient temperature for 1 h before being read on the EnVision reader (Perkin Elmer).
# (§4) Results were expressed as pIC50 (negative logarithm of IC50) and subsequently converted to pKi (negative logarithm of dissociation constant, Ki) using the Cheng-Prusoff equation.
# [6] = target: TYK2 (Homo sapiens (Human), UniProt P29597); type: biochemical
# Experimental: as §1, §2, §3, §4
# [7] = target: JAK3 (Homo sapiens (Human), UniProt P52333); test: Biochemical JAK assay (LanthaScreen), JAK3
# Experimental: as §1, §2
# Serially diluted compounds were pre-incubated with each of the four JAK enzymes and the substrate in white 384-well microplates (Corning) at ambient temperature for 1 h. ATP was subsequently added to initiate the kinase reactions in 10 μL total volume, with 1% DMSO. […] The plates were allowed to incubate at ambient temperature for 1 h before being read on the EnVision reader (Perkin Elmer).
# as §4
# [8] = test system: IL-4 induced STAT6 phosphorylation in THP-1 human monocytic cells; details: THP-1 cells
# [9] = 5% to 90% relative humidity, room temperature; listed as Crystalline 3-(1R,3s,5S)-3-((7-((5-methyl-1H-pyrazol-3-yl)amino)-1,6-naphthyrid))
# Experimental: A weighed sample was used and the humidity was lowest possible value (close to 0% RH) at the start of the analysis. The DMS analysis consisted of an initial drying step (0% RH) for 120 minutes, followed by two cycles of sorption and desorption with a scan rate of 5% RH/step over the humidity range of 5% RH to 90% RH. The DMS run was performed isothermally at 25° C.
# Sequence of JAK3 (P52333 whole entry): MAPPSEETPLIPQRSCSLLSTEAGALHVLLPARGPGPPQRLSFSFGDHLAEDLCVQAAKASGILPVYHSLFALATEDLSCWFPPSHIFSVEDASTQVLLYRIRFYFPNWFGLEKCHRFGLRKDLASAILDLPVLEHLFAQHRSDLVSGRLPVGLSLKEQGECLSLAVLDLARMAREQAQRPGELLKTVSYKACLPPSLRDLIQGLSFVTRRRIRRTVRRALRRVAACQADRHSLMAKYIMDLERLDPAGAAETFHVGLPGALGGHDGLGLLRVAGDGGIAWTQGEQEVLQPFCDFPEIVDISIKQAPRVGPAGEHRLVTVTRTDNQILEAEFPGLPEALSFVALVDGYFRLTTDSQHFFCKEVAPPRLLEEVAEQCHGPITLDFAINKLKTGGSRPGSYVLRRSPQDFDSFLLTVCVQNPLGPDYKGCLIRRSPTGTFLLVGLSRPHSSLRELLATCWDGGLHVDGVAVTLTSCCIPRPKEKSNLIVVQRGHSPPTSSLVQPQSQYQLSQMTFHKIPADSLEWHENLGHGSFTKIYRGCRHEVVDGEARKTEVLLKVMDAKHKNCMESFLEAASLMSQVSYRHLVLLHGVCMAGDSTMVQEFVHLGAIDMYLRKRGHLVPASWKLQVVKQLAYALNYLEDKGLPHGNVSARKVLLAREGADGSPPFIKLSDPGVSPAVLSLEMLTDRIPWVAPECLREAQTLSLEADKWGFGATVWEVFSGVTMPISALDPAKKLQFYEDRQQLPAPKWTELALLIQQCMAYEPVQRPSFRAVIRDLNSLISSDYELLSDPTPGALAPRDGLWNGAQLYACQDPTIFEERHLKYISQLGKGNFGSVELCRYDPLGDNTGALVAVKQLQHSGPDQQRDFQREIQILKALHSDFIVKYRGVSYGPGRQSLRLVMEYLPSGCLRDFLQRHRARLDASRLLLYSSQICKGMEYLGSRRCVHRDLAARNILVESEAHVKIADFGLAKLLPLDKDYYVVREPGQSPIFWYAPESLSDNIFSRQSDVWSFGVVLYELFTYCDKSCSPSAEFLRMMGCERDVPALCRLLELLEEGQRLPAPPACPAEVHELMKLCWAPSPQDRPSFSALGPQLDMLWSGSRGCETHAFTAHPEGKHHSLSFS
# Sequence of TYK2 (P29597 whole entry): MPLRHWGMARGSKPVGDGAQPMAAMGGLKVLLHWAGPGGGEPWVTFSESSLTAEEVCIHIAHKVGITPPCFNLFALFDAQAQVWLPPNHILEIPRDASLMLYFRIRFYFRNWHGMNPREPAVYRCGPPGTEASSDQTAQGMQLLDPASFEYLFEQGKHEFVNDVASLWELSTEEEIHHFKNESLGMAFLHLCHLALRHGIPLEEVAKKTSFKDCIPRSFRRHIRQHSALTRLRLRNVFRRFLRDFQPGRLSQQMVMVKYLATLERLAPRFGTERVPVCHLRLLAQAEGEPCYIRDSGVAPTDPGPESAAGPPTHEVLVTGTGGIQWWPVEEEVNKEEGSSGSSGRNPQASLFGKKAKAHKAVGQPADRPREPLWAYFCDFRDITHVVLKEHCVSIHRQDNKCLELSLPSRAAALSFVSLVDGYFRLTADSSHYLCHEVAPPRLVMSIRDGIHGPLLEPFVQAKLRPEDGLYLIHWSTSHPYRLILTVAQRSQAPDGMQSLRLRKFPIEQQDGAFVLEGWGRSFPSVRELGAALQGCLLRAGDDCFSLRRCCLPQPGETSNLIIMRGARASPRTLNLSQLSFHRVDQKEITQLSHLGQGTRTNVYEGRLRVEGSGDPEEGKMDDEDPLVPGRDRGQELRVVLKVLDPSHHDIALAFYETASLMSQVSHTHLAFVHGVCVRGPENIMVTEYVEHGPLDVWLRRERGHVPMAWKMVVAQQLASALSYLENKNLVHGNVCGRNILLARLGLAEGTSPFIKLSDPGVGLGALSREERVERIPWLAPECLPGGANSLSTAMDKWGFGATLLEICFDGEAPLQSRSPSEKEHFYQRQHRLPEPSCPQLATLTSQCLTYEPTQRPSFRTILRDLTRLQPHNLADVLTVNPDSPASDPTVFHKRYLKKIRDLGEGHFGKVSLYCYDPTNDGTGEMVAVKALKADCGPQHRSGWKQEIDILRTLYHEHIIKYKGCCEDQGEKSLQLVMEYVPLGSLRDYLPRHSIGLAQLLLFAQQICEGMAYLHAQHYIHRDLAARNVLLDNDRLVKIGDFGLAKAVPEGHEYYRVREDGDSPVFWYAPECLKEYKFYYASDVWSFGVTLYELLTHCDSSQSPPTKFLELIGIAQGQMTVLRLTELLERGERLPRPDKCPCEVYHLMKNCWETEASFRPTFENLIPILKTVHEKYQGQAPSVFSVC
# Sequence of JAK2 (O60674 whole entry): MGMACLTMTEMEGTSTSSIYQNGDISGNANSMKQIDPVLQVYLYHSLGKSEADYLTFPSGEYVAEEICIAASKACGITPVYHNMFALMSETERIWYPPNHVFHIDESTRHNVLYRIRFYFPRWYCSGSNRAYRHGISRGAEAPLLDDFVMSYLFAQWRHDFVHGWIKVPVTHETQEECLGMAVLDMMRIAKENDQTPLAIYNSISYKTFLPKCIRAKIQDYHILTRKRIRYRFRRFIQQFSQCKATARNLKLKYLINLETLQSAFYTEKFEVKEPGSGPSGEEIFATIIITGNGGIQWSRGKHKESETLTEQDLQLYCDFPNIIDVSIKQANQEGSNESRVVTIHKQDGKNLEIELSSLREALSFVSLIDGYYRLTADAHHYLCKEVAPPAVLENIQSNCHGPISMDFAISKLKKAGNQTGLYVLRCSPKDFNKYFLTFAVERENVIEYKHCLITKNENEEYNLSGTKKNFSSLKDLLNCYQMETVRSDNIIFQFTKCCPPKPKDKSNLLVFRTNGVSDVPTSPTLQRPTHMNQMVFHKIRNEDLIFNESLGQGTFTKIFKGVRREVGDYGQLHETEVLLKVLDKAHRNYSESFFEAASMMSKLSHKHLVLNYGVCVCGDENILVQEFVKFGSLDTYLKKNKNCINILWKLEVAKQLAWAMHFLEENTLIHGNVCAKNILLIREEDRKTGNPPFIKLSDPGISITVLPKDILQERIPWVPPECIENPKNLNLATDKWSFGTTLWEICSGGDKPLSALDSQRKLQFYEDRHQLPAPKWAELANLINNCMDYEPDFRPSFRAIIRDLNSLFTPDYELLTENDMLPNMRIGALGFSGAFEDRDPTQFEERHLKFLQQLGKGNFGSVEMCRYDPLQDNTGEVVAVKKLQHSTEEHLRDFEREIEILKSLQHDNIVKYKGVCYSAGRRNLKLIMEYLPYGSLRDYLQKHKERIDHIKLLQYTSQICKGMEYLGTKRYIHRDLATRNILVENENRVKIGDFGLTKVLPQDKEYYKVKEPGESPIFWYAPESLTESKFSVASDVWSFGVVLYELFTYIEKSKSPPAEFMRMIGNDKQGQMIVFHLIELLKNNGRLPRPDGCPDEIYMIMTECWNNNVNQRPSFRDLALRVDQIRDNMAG
structure (smiles),measurement,setting,value
"Cc1cc(Nc2cc3ncccc3c(N[C@@H]3C[C@H]4CC[C@@H](C3)N4CCC#N)n2)n[nH]1 [Example 1, 3-((1R,3s,5S)-3-((7-((5-methyl-1H-pyrazol-3-yl)amino)-1,6-naphthyridin-5-yl)amino)-8-azabicyclo[3.2.1]octan-8-yl)propanenitrile]",oral bioavailability,[1],very low
same,splenic NK cell counts,[2]; PO BID doses up to 100 mg/kg,unaffected
same,treatment effect on B and T cell populations,[2]; PO BID,No treatment effect
same,exposure throughout the gastrointestinal tract vs exposure in plasma,[3],significantly higher exposure
same,activity in the oxazolone-induced colitis model,[4],demonstrated activity
same,decrease in DAI score as compared with vehicle treated animals,"[4]; PO, 1, 3, and/or 10 mg/kg BID (doses up to 10 mg/kg BID)",statistically significant decrease
COCC1CCCN1S(=O)(=O)N1[C@@H]2CCC[C@H]1C[C@H](Nc1nc(Nc3cc(C)[nH]n3)cc3ncccc13)C2 (some centres unmarked) [Example 4-28],JAK 2 (pKi),[5],B (B represents a pKi value between 9 and 10 (Ki between 1 nM and 0.1 nM))
same,Tyk 2 (pKi),[6],B (B represents a pKi value between 9 and 10 (Ki between 1 nM and 0.1 nM))
same,JAK 3 (pKi),[7],C (C represents a pKi value between 7 and 9 (Ki between 100 nM and 1 nM))
same,THP-1 IL4 pIC50,[8],A (A represents a pEC50 value ≥7.5 (EC50≤32 nM))
"Cc1cc(Nc2cc3ncccc3c(N[C@@H]3C[C@H]4CC[C@@H](C3)N4CCC#N)n2)n[nH]1 [Form I, 3-((1R,3s,5S)-3-((7-((5-methyl-1H-pyrazol-3-yl)amino)-1,6-naphthyridin-5-yl)amino)-8-azabicyclo[3.2.1]octan-8-yl)propanenitrile]",weight gain / weight change on exposure to humidity,[9],less than 0.15%
